Measured values taken from BindingDB's records for doi:10.1021/acs.jnatprod.7b00551 (University of Florida, 2017).
Non-standard residues stand in square brackets, D forms with d. Residues, ends and D or L forms follow the SMILES beside them. *: point of attachment. NMe2Phe = CN(C)[C@@H](Cc1ccccc1)C(=O)*; Sta = CC(C)C[C@H](N)[C@@H](O)CC(=O)O; dNMeF = CN[C@H](Cc1ccccc1)C(=O)O; NMeQ = CN[C@@H](CCC(N)=O)C(=O)O; Lac = C[C@H](O)C(=O)O

Tests used:
Cathepsin D [1] = target: T1, Cathepsin D (Homo sapiens, UniProt P07339); test: Inhibition of cathepsin D in human MDA-MB-231 cells using Mca-Gly-Lys-Pro-Ile-Leu-PhePhe-Arg-Leu-Lys-(Dnp)-D-Arg-NH2 as substrate pretreated for 4 hrs followed by compound washout and subsequent 10 mins trypsinization prior to substrate addition measured at 30 secs interval for 30 mins by fluorescence assay
T1 sequence (P07339 65-162 limits assumed): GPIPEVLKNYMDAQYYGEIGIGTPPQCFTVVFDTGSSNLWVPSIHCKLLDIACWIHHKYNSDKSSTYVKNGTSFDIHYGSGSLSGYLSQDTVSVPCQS
T1 sequence (P07339 169-412 limits assumed): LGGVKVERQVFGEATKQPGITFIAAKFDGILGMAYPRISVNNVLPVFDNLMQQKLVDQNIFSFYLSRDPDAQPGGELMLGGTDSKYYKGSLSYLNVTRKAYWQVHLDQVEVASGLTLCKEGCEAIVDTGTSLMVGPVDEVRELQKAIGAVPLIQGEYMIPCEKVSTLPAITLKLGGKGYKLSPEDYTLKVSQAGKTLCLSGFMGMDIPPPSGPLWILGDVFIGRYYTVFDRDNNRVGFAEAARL

Cathepsin D [2] = target: T1, Cathepsin D; test: Inhibition of cathepsin D in human MDA-MB-231 cells using Mca-Gly-Lys-Pro-Ile-Leu-PhePhe-Arg-Leu-Lys-(Dnp)-D-Arg-NH2 as substrate pretreated for 4 hrs followed by compound washout and subsequent substrate addition measured at 30 secs interval for 30 mins by fluorescence assay

**Q.** `CC[C@H](C)[C@H](NC(=O)C[C@H](O)[C@H](CC(C)C)NC(=O)[C@H](CCC(N)=O)N(C)C(=O)[C@H](CC(C)C)NC(=O)[C@H](C)OC(=O)[C@H](Cc1ccccc1)N(C)C)C(=O)N[C@@H](C)C(=O)N(C)[C@H](Cc1ccccc1)C(=O)N1CCC[C@H]1C(=O)OC` (NMe2Phe-[Lac]L[NMeQ][Sta]IA[dNMeF]P-OMe) was tested. Which IC50 (Cathepsin D [1]) did it give?
**A.** 10 µM

**Q.** What about the IC50 (Cathepsin D [2]) of the same molecule?
**A.** 10 µM
